In patent US20260022142A1, “MACROCYCLIC IMMUNOMODULATORS” (Bristol-Myers Squibb Company, priority 2022, published 2026):
pIC50: −log10 of the molar value. Numbered stars: 1 amine (or outer) side, 2 acyl side, 3 side chain; on linkers, the order of the positions; unused ones are H or OH. Bridge positions count the residues as written; N and C are the ends. Square brackets hold non-standard residues; d marks the D form. Peptide text beside a SMILES is read from it. * marks the point of attachment. Phe(4-COOH) = N[C@@H](Cc1ccc(C(=O)O)cc1)C(=O)O; Bip = N[C@@H](Cc1ccc(-c2ccccc2)cc1)C(=O)O; Phe(4-CN) = N#Cc1ccc(C[C@H](N)C(=O)O)cc1; Phe(3-Me) = Cc1cccc(C[C@H](N)C(=O)O)c1; X5 = CC(C)(CCN)[C@H](N[*:1])C(=O)[*:2]; NH(CH2)12COOH = O=C(O)CCCCCCCCCCCCN*; Phe(2-F) = N[C@@H](Cc1ccccc1F)C(=O)O; Val(3-OH) = CC(C)(O)[C@H](N)C(=O)O; 4Pal = N[C@@H](Cc1ccncc1)C(=O)O; 2Thi = N[C@@H](Cc1cccs1)C(=O)O; Cha = N[C@@H](CC1CCCCC1)C(=O)O; Carboxymethyl = O=C(O)C*; Orn = NCCC[C@H](N)C(=O)O; Aun = NCCCCCCCCCCC(=O)O; Dab = NCC[C@H](N)C(=O)O; Nva = CCC[C@H](N)C(=O)O; Ac3c = NC1(C(=O)O)CC1

Molecular target: T1, PD-1/PD-L1 interaction (PE-labeled human PD-L1-Ig binding to Jurkat cell line over-expressing human PD-1) (Homo sapiens, UniProt Q15116)
T1 construct: expressed in transfected cells; host or cells: Jurkat
T1 sequence (Q15116 25-288): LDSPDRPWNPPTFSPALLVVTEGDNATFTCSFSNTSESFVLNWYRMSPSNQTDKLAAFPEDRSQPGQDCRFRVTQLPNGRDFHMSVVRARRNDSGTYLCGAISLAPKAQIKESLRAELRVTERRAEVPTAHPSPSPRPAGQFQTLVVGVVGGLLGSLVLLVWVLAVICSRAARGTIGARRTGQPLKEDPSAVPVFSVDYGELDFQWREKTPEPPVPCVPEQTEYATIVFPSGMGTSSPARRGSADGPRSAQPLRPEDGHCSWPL
Assay: Jurkat-PD-1 Cell Binding High-Content Screening Assay (CBA)
Assay type: cell-based
Conditions: Jurkat cell line over-expressing human PD-1; PE-labeled PD-L1-Ig 20 nM final; read-out: Jurkat hPD1-PDL1 IC50
How it was run: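 Jurkat cells over-expressing human PD-1 (8×10^3 per well, DMEM/10% FCS) preincubated with compound 2 h at 37° C, then PE-labeled human PD-L1-Ig (20 nM final) added for 1 h. Cells fixed with paraformaldehyde, Hoechst-stained, and bound fluorescence quantified by high-content imaging.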

## Cc1cccc(C[C@@H]2NC(=O)[C@H](CC(=O)O)NC(=O)[C@H](Cc3ccc(OCC(=O)O)cc3)NC(=O)[C@H](C(C)(C)CCN)NC(=O)CSC[C@@H](C(=O)N[C@@H](CCN)C(=O)NCCCCCCCCCCCCC(=O)O)NC(=O)[C@H](CO)NC(=O)[C@H](C(C)(C)O)NC(=O)[C@H](CC3CCCCC3)NC(=O)[C@H](CCN)NC(=O)[C@@H](CC(C)C)NC(=O)[C@H](CCCN)NC(=O)[C@H](Cc3ccc(OCC(=O)O)cc3)NC(=O)[C@H](Cc3ccc(-c4ccccc4)cc3)NC(=O)[C@H](Cc3ccc(OCC(=O)O)cc3)NC2=O)c1 [Compound 2176] ({CH2CO}-[X5]Y(Carboxymethyl)D[Phe(3-Me)]Y(Carboxymethyl)[Bip]Y(Carboxymethyl)[Orn][dL][Dab][Cha][Val(3-OH)]SC[Dab]-{NH(CH2)12COOH}; thioether N-14)
  pIC50: 6.98

## Cc1cccc(C[C@@H]2NC(=O)[C@H](CC(=O)O)NC(=O)[C@H](Cc3ccc(C(=O)O)cc3)NC(=O)[C@H](Cc3ccncc3)NC(=O)CSC[C@@H](C(=O)N[C@@H](CCN)C(=O)NCCCCCCCCCCC(=O)O)NC(=O)[C@H](CO)NC(=O)[C@H](C(C)(C)O)NC(=O)[C@H](CC3CCCCC3)NC(=O)[C@H](CCN)NC(=O)[C@@H](CC(C)C)NC(=O)[C@H](CCCN)NC(=O)[C@H](Cc3ccc(OCC(=O)O)cc3)NC(=O)[C@H](Cc3ccc(-c4ccccc4)cc3)NC(=O)[C@H](Cc3ccc(OCC(=O)O)cc3)NC2=O)c1 [Compound 2177] ({CH2CO}-[4Pal][Phe(4-COOH)]D[Phe(3-Me)]Y(Carboxymethyl)[Bip]Y(Carboxymethyl)[Orn][dL][Dab][Cha][Val(3-OH)]SC[Dab][Aun]-OH; thioether N-14)
  pIC50: 6.84

## CCC[C@@H]1NC(=O)CSC[C@@H](C(=O)N[C@@H](CCN)C(=O)NCCCCCCCCCCC(=O)O)NC(=O)[C@H](CO)NC(=O)[C@H](C(C)(C)O)NC(=O)[C@H](CC2CCCCC2)NC(=O)[C@H](CCN)NC(=O)[C@@H](CC(C)C)NC(=O)[C@H](CCCN)NC(=O)[C@H](Cc2ccc(OCC(=O)O)cc2)NC(=O)[C@H](Cc2ccc(-c3ccccc3)cc2)NC(=O)[C@H](Cc2ccc(OCC(=O)O)cc2)NC(=O)[C@H](Cc2cccc(C)c2)NC(=O)[C@H](CC(=O)O)NC(=O)[C@H](Cc2ccc(C(=O)O)cc2)NC1=O [Compound 2178] ({CH2CO}-[Nva][Phe(4-COOH)]D[Phe(3-Me)]Y(Carboxymethyl)[Bip]Y(Carboxymethyl)[Orn][dL][Dab][Cha][Val(3-OH)]SC[Dab][Aun]-OH; thioether N-14)
  pIC50: 8.19

## Cc1cccc(C[C@@H]2NC(=O)[C@H](CC(=O)O)NC(=O)[C@H](Cc3ccc(C(=O)O)cc3)NC(=O)[C@H](Cc3cccs3)NC(=O)CSC[C@@H](C(=O)N[C@@H](CCN)C(=O)NCCCCCCCCCCC(=O)O)NC(=O)[C@H](CO)NC(=O)[C@H](C(C)(C)O)NC(=O)[C@H](CC3CCCCC3)NC(=O)[C@H](CCN)NC(=O)[C@@H](CC(C)C)NC(=O)[C@H](CCCN)NC(=O)[C@H](Cc3ccc(OCC(=O)O)cc3)NC(=O)[C@H](Cc3ccc(-c4ccccc4)cc3)NC(=O)[C@H](Cc3ccc(OCC(=O)O)cc3)NC2=O)c1 [Compound 2179] ({CH2CO}-[2Thi][Phe(4-COOH)]D[Phe(3-Me)]Y(Carboxymethyl)[Bip]Y(Carboxymethyl)[Orn][dL][Dab][Cha][Val(3-OH)]SC[Dab][Aun]-OH; thioether N-14)
  pIC50: 7.66

## Cc1cccc(C[C@@H]2NC(=O)[C@H](CC(=O)O)NC(=O)[C@H](Cc3ccc(OCC(=O)O)cc3)NC(=O)C3(CC3)NC(=O)CSC[C@@H](C(=O)N[C@@H](CCN)C(=O)NCCCCCCCCCCC(=O)O)NC(=O)[C@H](CO)NC(=O)[C@H](C(C)(C)O)NC(=O)[C@H](CC3CCCCC3)NC(=O)[C@H](CCN)NC(=O)[C@@H](CC(C)C)NC(=O)[C@H](CCCN)NC(=O)[C@H](Cc3ccc(OCC(=O)O)cc3)NC(=O)[C@H](Cc3ccc(-c4ccccc4)cc3)NC(=O)[C@H](Cc3ccc(OCC(=O)O)cc3)NC2=O)c1 [Compound 2180] ({CH2CO}-[Ac3c]Y(Carboxymethyl)D[Phe(3-Me)]Y(Carboxymethyl)[Bip]Y(Carboxymethyl)[Orn][dL][Dab][Cha][Val(3-OH)]SC[Dab][Aun]-OH; thioether N-14)
  pIC50: 6.92

## COc1ccc(C[C@@H]2NC(=O)CSC[C@@H](C(=O)N[C@@H](CCN)C(=O)NCCCCCCCCCCC(=O)O)NC(=O)[C@H](CO)NC(=O)[C@H](C(C)(C)O)NC(=O)[C@H](CC3CCCCC3)NC(=O)[C@H](CCN)NC(=O)[C@@H](CC(C)C)NC(=O)[C@H](CCCN)NC(=O)[C@H](Cc3ccc(OCC(=O)O)cc3)NC(=O)[C@H](Cc3ccc(-c4ccccc4)cc3)NC(=O)[C@H](Cc3ccc(OCC(=O)O)cc3)NC(=O)[C@H](Cc3cccc(C)c3)NC(=O)[C@H](CC(=O)O)NC(=O)[C@H](Cc3ccc(OCC(=O)O)cc3)NC2=O)cc1 [Compound 2181] ({CH2CO}-Y(Me)Y(Carboxymethyl)D[Phe(3-Me)]Y(Carboxymethyl)[Bip]Y(Carboxymethyl)[Orn][dL][Dab][Cha][Val(3-OH)]SC[Dab][Aun]-OH; thioether N-14)
  pIC50: 7.75

## Cc1cccc(C[C@@H]2NC(=O)[C@H](CC(=O)O)NC(=O)[C@H](Cc3ccc(OCC(=O)O)cc3)NC(=O)[C@H](Cc3cccs3)NC(=O)CSC[C@@H](C(=O)N[C@@H](CCN)C(=O)NCCCCCCCCCCC(=O)O)NC(=O)[C@H](CO)NC(=O)[C@H](C(C)(C)O)NC(=O)[C@H](CC3CCCCC3)NC(=O)[C@H](CCN)NC(=O)[C@@H](CC(C)C)NC(=O)[C@H](CCCN)NC(=O)[C@H](Cc3ccc(OCC(=O)O)cc3)NC(=O)[C@H](Cc3ccc(-c4ccccc4)cc3)NC(=O)[C@H](Cc3ccc(OCC(=O)O)cc3)NC2=O)c1 [Compound 2182] ({CH2CO}-[2Thi]Y(Carboxymethyl)D[Phe(3-Me)]Y(Carboxymethyl)[Bip]Y(Carboxymethyl)[Orn][dL][Dab][Cha][Val(3-OH)]SC[Dab][Aun]-OH; thioether N-14)
  pIC50: 7.81

## Cc1cccc(C[C@@H]2NC(=O)[C@H](CC(=O)O)NC(=O)[C@H](Cc3ccc(OCC(=O)O)cc3)NC(=O)[C@H](Cc3ccc(C#N)cc3)NC(=O)CSC[C@@H](C(=O)N[C@@H](CCN)C(=O)NCCCCCCCCCCC(=O)O)NC(=O)[C@H](CO)NC(=O)[C@H](C(C)(C)O)NC(=O)[C@H](CC3CCCCC3)NC(=O)[C@H](CCN)NC(=O)[C@@H](CC(C)C)NC(=O)[C@H](CCCN)NC(=O)[C@H](Cc3ccc(OCC(=O)O)cc3)NC(=O)[C@H](Cc3ccc(-c4ccccc4)cc3)NC(=O)[C@H](Cc3ccc(OCC(=O)O)cc3)NC2=O)c1 [Compound 2183] ({CH2CO}-[Phe(4-CN)]Y(Carboxymethyl)D[Phe(3-Me)]Y(Carboxymethyl)[Bip]Y(Carboxymethyl)[Orn][dL][Dab][Cha][Val(3-OH)]SC[Dab][Aun]-OH; thioether N-14)
  pIC50: 7.88

## Cc1cccc(C[C@@H]2NC(=O)[C@H](CC(=O)O)NC(=O)[C@H](Cc3ccc(OCC(=O)O)cc3)NC(=O)[C@H](Cc3ccncc3)NC(=O)CSC[C@@H](C(=O)N[C@@H](CCN)C(=O)NCCCCCCCCCCC(=O)O)NC(=O)[C@H](CO)NC(=O)[C@H](C(C)(C)O)NC(=O)[C@H](CC3CCCCC3)NC(=O)[C@H](CCN)NC(=O)[C@@H](CC(C)C)NC(=O)[C@H](CCCN)NC(=O)[C@H](Cc3ccc(OCC(=O)O)cc3)NC(=O)[C@H](Cc3ccc(-c4ccccc4)cc3)NC(=O)[C@H](Cc3ccccc3F)NC2=O)c1 [Compound 2184] ({CH2CO}-[4Pal]Y(Carboxymethyl)D[Phe(3-Me)][Phe(2-F)][Bip]Y(Carboxymethyl)[Orn][dL][Dab][Cha][Val(3-OH)]SC[Dab][Aun]-OH; thioether N-14)
  pIC50: 7.99
